Molecular target: Hepatocyte growth factor receptor (Homo sapiens, UniProt P08581)
Assay: Inhibition of purified c-Met using poly(glu,tyr) as substrate after 60 mins by ELISA

Hepatocyte growth factor receptor, sequence (P08581 whole entry): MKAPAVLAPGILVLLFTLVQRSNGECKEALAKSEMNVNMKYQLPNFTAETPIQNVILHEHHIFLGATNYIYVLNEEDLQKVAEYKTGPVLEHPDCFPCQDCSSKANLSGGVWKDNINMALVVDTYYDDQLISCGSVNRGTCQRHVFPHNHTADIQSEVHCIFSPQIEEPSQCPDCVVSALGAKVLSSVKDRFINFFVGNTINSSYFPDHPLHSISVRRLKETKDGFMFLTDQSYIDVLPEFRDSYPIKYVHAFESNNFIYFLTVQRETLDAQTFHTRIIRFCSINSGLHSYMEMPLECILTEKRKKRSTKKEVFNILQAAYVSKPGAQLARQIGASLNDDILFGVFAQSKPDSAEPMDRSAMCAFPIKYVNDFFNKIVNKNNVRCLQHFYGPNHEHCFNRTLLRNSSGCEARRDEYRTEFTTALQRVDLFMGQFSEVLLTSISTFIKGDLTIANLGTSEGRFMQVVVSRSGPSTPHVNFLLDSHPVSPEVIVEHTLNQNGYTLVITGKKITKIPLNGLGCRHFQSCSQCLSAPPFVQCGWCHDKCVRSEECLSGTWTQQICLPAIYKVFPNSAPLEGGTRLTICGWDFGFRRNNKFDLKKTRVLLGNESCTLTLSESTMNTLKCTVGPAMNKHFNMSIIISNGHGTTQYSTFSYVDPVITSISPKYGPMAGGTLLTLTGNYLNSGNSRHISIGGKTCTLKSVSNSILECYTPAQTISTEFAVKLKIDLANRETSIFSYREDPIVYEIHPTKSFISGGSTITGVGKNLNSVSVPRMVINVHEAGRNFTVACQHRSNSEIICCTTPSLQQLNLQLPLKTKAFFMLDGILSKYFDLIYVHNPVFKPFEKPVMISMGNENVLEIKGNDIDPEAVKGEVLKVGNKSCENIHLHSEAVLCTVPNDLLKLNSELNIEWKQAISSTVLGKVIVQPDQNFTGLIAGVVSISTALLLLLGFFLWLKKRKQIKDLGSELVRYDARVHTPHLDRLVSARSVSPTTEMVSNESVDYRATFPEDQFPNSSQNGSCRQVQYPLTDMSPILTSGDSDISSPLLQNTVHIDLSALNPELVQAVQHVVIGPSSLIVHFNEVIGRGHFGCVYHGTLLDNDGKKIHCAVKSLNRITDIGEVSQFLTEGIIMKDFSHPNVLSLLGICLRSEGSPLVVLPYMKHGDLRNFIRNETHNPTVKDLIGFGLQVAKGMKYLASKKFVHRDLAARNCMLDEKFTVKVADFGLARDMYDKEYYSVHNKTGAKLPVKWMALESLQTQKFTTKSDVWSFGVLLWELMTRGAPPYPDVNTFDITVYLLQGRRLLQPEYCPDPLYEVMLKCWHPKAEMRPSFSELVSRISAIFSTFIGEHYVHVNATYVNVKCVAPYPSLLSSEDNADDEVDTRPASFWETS

SMILES	IC50 [µM]
O=C(N/N=C1\C(=O)N(CN2CCOCC2)c2ccc(Br)cc21)c1ccccc1	3.5
O=C1Nc2ccccc2C1=NNC(=O)c1ccc([N+](=O)[O-])cc1	28.3
CN1C(=O)/C(=N\NC(=O)c2ccc([N+](=O)[O-])cc2)c2ccccc21	12.3
O=[N+]([O-])c1cc(-c2ccc(/C=N\n3cnnc3N/N=C/c3ccc(-c4ccc(Cl)c([N+](=O)[O-])c4)o3)o2)ccc1Cl	3.3
Cc1cccc(C(=O)Nc2ccc(C(=O)N/N=C3\C(=O)Nc4ccccc43)cc2)c1	1.3
O=C(CCCCCC(=O)N/N=C/c1cc2c(cc1[N+](=O)[O-])OCO2)N/N=C/c1cc2c(cc1[N+](=O)[O-])OCO2	0.78
COc1ccc(C(=O)N/N=C2\C(=O)N(CN3CCOCC3)c3ccc(Br)cc32)cc1	2.2
CN1C(=O)/C(=N\NC(=O)c2cccc(C(=O)N/N=C3/C(=O)N(C)c4ccccc43)c2)c2ccccc21	10.3
Cc1ccc(NC(=O)CN2C(=O)/C(=N\NC(=O)c3ccc(N)cc3)c3ccccc32)cc1	15.8
COc1ccc(C(=O)COC(=O)c2ccc3c(c2)C(=O)N(c2ccc(C(C)=O)cc2)C3=O)cc1	3.7
O=C1Nc2ccccc2/C1=N/NC(=O)c1cc2ccccc2cc1O	4.3
